Test results: patent US4668688A, “N-substituted isoquinoline derivatives and pharmaceutical compositions containing them” (Richter Gedeon Vegyeszeti Gyar R.T., priority 1983, dated 1987)
Where two headings read alike, the source gives them in different places.

Tests used:
[1] = test system: Hyperthermia; experiment: Antipyretic Activity (rats), Brewer's yeast hyperthermia; assay type: in vivo, male Han. Wistar (LATI) rats; conditions: 30 mg/kg orally, 4 h after yeast, % of animals at least one centigrade lower than control
Protocol: (§1) For the pharmacological tests CFLP (LATI) mice of both sexes, weighing 18 to 22 g each and male Han. Wistar (LATI) rats weighing 160 to 180 g each were used. The test materials were administered orally, in 30 mg/kg doses, in the form of a suspension containing 5% of Tween 80, one hour before the tests.
5. Antipyretic Activity (rats)
Hyperthermia is induced in rats with Brewer's yeast suspension (0.5% of Brewer's yeast, 1% of arabic gum in a volume of 0.3 ml, s.c.). The animals are treated with the test materials 4 hours later, and the tracheal temperature of the animals is registered with an ELAB thermometer (typ. TE-3) for 4 hours.

[2] = test system: Tetrabenazine Catalepsy; experiment: Inhibition of Tetrabenazine Catalepsy (rats); assay type: in vivo, male Han. Wistar (LATI) rats; conditions: for Antitetrabenazine activity (%): rats, 30 mg/kg intraperitoneally, one hour before tetrabenazine
Protocol: as §1
3. Inhibition of Tetrabenazine Catalepsy
The test was carried out on male rats each weighing 160 to 180 g. The test materials were administered intraperitoneally, in a dose of 30 mg/kg, one hour before tetrabenazine administration.

[3] = test system: Metrazole Spasm; experiment: Metrazole Spasm (mice), antispasm activity; assay type: in vivo, CFLP (LATI) mice; conditions: for Antispasm activity metrazole b: b) tonic extensoric spasm, 30 mg/kg orally
Protocol: as §1

[4] = test system: writhing syndrom; experiment: Analgesic Activity (mice), acetic acid writhing syndrom; assay type: in vivo, CFLP (LATI) mice; conditions: for ED50: Mus musculus, po, read-out: Analgesic activity, ED50
Protocol: as §1, with “tests. 4. Analgesic Activity (mice) One hour after pretreatment, mice were administered 0.4 ml of a 0.6% acetic acid solution intraperitoneally, as a pain stimulus. The frequency of writhing syndrom is registered for 30 minutes.” for “tests.”

[5] = mice, pentylenetetrazole 125 mg/kg s.c.

SMILES | Antipyretic activity (%) [1] [%] | Antitetrabenazine activity (%) [2] [%] | antidepressive effect (in words) ([2]; test not given) | Antispasm activity metrazole b [3, 5] | anticonvulsive effect (in words) ([3]; test not given) | ED50 ([4]; value marked ^x = ED50, mice, orally, 0.6% acetic acid i.p. writhing) [mg/kg] | analgesic activity (in words) ([4]; acetic acid writhing, mice) | analgesic activity relative to reference compound (Na-salicylate) ([4]; acetic acid writhing, mice) | ED50 ([3]; Mus musculus, po; value marked ^x = ED50; b) tonic extensoric spasm, mice, orally, pentylenetetrazole 125 mg/kg s.c.) [mg/kg] | Analgesic activity (%) ([4]; mice, 30 mg/kg orally, 0.4 ml 0.6% acetic acid i.p., 30 minutes, vs control) | influence on writhing syndrom induced with acetic acid (in words) ([4]; 30 mg/kg dose, mice) | ED50 [4] [mg/kg]
COc1cc2c(cc1OC)C(C(CO)CO)N(C)CC2.Cl (centres unmarked) [Compound A, 1-[bis(hydroxymethyl)-methyl]-2-methyl-6,7-dimethoxy-1,2,3,4-tetrahydroisoquinoline hydrochloride] | 20.0 | 20.0 | remarkable anticonvulsive and antidepressive effects | 20.0 | remarkable anticonvulsive and antidepressive effects | 28 | valuable analgesic activity | four times more active than the reference compound | – | – | – | –
CCOc1cc2c(cc1OCC)C(C(CO)CO)N(CC(O)CC)CC2.Cl (stereo not drawn) [Compound B, 1-[bis-(Hydroxymethyl)-methyl]-2-(β-hydroxybutyl)6,7-diethoxy-1,2,3,4-tetrahydroisoquinoline hydrochloride] | 20.0 | 20.0 | – | – | – | – | somewhat lower analgesic activity than the above 2-methyl-compound | – | 20 | 40.0 | – | –
O=C(O)c1ccccc1O [Na--salicylate, Na-salicylate, reference compound] | 40.0 | – | – | 20.0 | – | – | – | – | – | – | practically not influenced | 113
